Measurements: patent US4100346A, “Certain 7(o-amino-methyl- or methylaminomethylphenyl- or cyclohexadienyl- or thienylacetamide)-3[1-carboxymethyl-(or ethyl- or propyl-)-tetrazol-5-ylthiomethyl]-3-cephem-4-carboxylic acids” (Bristol-Myers Company, priority 1976, dated 1978)
≈ marks a conversion by molar mass, not a printed value. Read-outs that look alike come from different tables or passages of the source.

Experiments:
Staphylococcus Aureus [1] = assay: Effect of inoculum size on susceptibility of Staphylococcus aureus; type: cell-based; conditions: for MICB /MICA: MIC at 10^6 over MIC at 10^2 organisms
[2] = target: staphylococcal β-lactamase, Staphylococcus aureus A9606 (Staphylococcus aureus, UniProt P00807); assay: Hydrolysis by β-lactamase in cell-free extracts; type: biochemical; conditions: cell-free extract
Chain of staphylococcal β-lactamase, Staphylococcus aureus A9606 (P00807 25-281): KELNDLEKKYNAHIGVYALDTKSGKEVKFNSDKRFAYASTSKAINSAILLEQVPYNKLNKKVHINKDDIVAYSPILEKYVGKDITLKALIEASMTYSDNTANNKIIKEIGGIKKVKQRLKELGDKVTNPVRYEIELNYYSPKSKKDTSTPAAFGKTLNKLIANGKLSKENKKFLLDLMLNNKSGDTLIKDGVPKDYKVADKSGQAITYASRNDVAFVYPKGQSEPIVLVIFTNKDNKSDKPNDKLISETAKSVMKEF
Description: Miscellaneous. Methods for determining bactericidal activity and susceptibility to cell-free β-lactamase were those previously used; Leitner et al., BL-S640, A Cephalosporin With a Broad Spectrum of Antibacterial Activity: Properties in vitro, Antimicrob. Agents Chemother. 7:298-305 (1975).
Susceptibility to β-lactamase. Susceptibility to enzymic hydrolysis was assessed by determining relative rates of hydrolysis by cell-free preparations of various β-lactamases (Table 6). BL-S786 was slightly to markedly less susceptible than the other cephalosporins to hydrolysis by β-lactamases of Type Ia, Ib, IIIa and IVa. All cephalosporins were poor substrates for Type IIa and staphylococcal β-lactamases. The four cephalosporins were hydrolyzed at similar rates by the Type IVb enzyme.

Staphylococcus aureus [3] = assay: Intramuscular treatment of systemically infected mice; type: in vivo; conditions: im, read-out: PD50 /treatment
Text: (§1) Treatment of Systemically Infected Mice. The procedures were identical with those published previously [Leitner et al., BL-S640, a Cephalosporin With a Broad Spectrum of Antibacterial Activity: Bioavailability and Therapeutic Properties in Rodents, Antimicrob. Agents Chemother. 7:306-310, (1975)], except that:
(§2) (a) the hog gastric mucin used in infections with Staphylococcus aureus No. 2 was purchased from American Laboratories, Inc., Omaha, Neb. (lot No. 154163) and b) that the medium used to suspend all other organisms contained 3% (rather than 4%) hog gastric mucin (type 1701W, Wilson Laboratories, Inc., Park Forest South, Ill.).
(§3) *Animals infected with penicillinase-producing staphyloccal strains (No.
(§4) and 3) were treated 0 and 2 hours after infection; the others were treate
(§5) 1 and 3.5 hours after infection.

Streptococcus pneumoniae = assay: as above; type: in vivo; conditions: im, 3.5 h, read-out: PD50 /treatment
Text: as §1, §2, §3, §4, §5

Streptococcus pyogenes = assay: as above; type: in vivo; conditions: im, 3.5 h, read-out: PD50 /treatment
Text: as §1, §2, §3, §4, §5

in vitro = in vitro ADME, human; conditions: human, serum; read-out: protein bound (converted)
Edwardsiella tarda = assay: Growth inhibitory activity, antibiotic dilution technique; conditions: read-out: Minimum inhibitory concentration
Citrobacter sp. = assay: as above
Erwinia sp. = assay: as above; conditions: read-out: Minimum inhibitory concentration
Pasteurella multocida = assay: as above; conditions: read-out: Minimum inhibitory concentration
Pseudomonas aeruginosa = assay: as above; conditions: read-out: Minimum inhibitory concentration
Alcaligenes sp. = assay: as above
Providencia stuartii = assay: as above
Haemophilus influenzae = assay: as above; conditions: including 9 ampicillin-resistant strains
Escherichia coli = assay: Effect of inoculum size on susceptibility of Enterobacteriaceae
Enterobacter cloacae = assay: as above
Proteus mirabilis = assay: as above
Proteus vulgaris = assay: as above

Structure (SMILES): CC(=O)OCC1=C(C(=O)O)N2C(=O)[C@@H](NC(=O)Cc3cccs3)[C@H]2SC1 [Cephalothin]
- effect of cell concentration on growth inhibitory activity (Staphylococcus Aureus [1]): slightly
- MICB /MICA (Staphylococcus Aureus [1]; Lacking penicillinase, 3 strains): 1.0
- MICB /MICA (Staphylococcus Aureus [1]; Penicillinase producer, 26 strains): 2.2
- Relative Rate of Hydrolysis (benzylpenicillin = 100) [2]: < 0.5
- ED50 (Staphylococcus aureus [3]; 3.5 h, Staphylococcus aureus strain 1, challenge 2 × 10^5 - 3 × 10^5, treated 1 and 3.5 hours after infection): 0.3 mg/kg
- ED50 (Staphylococcus aureus [3]; Staphylococcus aureus strain 2 (penicillinase-producing), challenge 1 × 10^9, treated 0 and 2 hours after infection): 9.3 mg/kg
- ED50 (Staphylococcus aureus [3]; Staphylococcus aureus strain 3 (penicillinase-producing), challenge 5 × 10^8 - 7 × 10^9, treated 0 and 2 hours after infection): 32 mg/kg
- ED50 (Streptococcus pneumoniae; Streptococcus pneumoniae strain 1, challenge 2 × 10^3 - 9 × 10^3, treated 1 and 3.5 hours after infection): 4 mg/kg
- ED50 (Streptococcus pneumoniae; Streptococcus pneumoniae strain 2, challenge 1 × 10^4 - 3 × 10^4, treated 1 and 3.5 hours after infection): 19 mg/kg
- ED50 (Streptococcus pyogenes; Streptococcus pyogenes strain 1, challenge 2 × 10^3 -6 × 10^3, treated 1 and 3.5 hours after infection): 4.5 mg/kg
- ED50 (Streptococcus pyogenes; Streptococcus pyogenes strain 2, challenge 1 × 10^4 - 5 × 10^4, treated 1 and 3.5 hours after infection): 2.7 mg/kg
- fraction unbound (in vitro): 0.33
- MIC (Edwardsiella tarda): 1 µg/mL (≈ 2.52 µM)
- MIC (Citrobacter sp.; read-out: Minimum inhibitory concentration, Citrobacter sp., 1 strain): > 125 µg/mL
- MIC (Citrobacter sp.; read-out: Minimum inhibitory concentration, Citrobacter sp., 4 strains, geometric mean when applicable): 63 µg/mL (≈ 159 µM)
- MIC (Erwinia sp.): 5.3 µg/mL (≈ 13.4 µM)
- MIC (Pasteurella multocida): 0.09 µg/mL (≈ 0.227 µM)
- MIC (Pseudomonas aeruginosa): > 125 µg/mL
- MIC (Alcaligenes sp.; read-out: Minimum inhibitory concentration, Alcaligenes sp., 2 strains, geometric mean when applicable): > 125 µg/mL
- MIC (Alcaligenes sp.; read-out: Minimum inhibitory concentration, Alcaligenes sp., 4 strains, geometric mean when applicable): > 105 µg/mL
- MIC (Alcaligenes sp.; read-out: Minimum inhibitory concentration, Alcaligenes sp., 5 strains, geometric mean when applicable): 1.3 µg/mL (≈ 3.28 µM)
- percent of strains inhibited (Providencia stuartii): negligible
- relative activity against Haemophilus influenzae (Haemophilus influenzae): more than twice as active
- MIC (Escherichia coli; read-out: Minimum Inhibitory Concentration, Escherichia coli strain 1, A, Inoculum of 10^2 organisms): 8 µg/mL (≈ 20.2 µM)
- MIC (Escherichia coli; read-out: Minimum Inhibitory Concentration, Escherichia coli strain 1, B, Inoculum of 10^6 organisms): 32 µg/mL (≈ 80.7 µM)
- MIC (Escherichia coli; read-out: Minimum Inhibitory Concentration, Escherichia coli strain 2, A, Inoculum of 10^2 organisms): 16 µg/mL (≈ 40.4 µM)
- MIC (Escherichia coli; read-out: Minimum Inhibitory Concentration, Escherichia coli strain 2, B, Inoculum of 10^6 organisms): 32 µg/mL (≈ 80.7 µM)
- MIC (Escherichia coli; read-out: Minimum Inhibitory Concentration, Escherichia coli strain 3, A, Inoculum of 10^2 organisms): 4 µg/mL (≈ 10.1 µM)
- MIC (Escherichia coli; read-out: Minimum Inhibitory Concentration, Escherichia coli strain 3, B, Inoculum of 10^6 organisms): 16 µg/mL (≈ 40.4 µM)
- MIC (Escherichia coli; read-out: Minimum Inhibitory Concentration, Escherichia coli strain 4, A, Inoculum of 10^2 organisms): 4 µg/mL (≈ 10.1 µM)
- MIC (Escherichia coli; read-out: Minimum Inhibitory Concentration, Escherichia coli strain 4, B, Inoculum of 10^6 organisms): 32 µg/mL (≈ 80.7 µM)
- MIC (Escherichia coli; read-out: Minimum Inhibitory Concentration, Escherichia coli strain 5, A, Inoculum of 10^2 organisms): 4 µg/mL (≈ 10.1 µM)
- MIC (Escherichia coli; read-out: Minimum Inhibitory Concentration, Escherichia coli strain 5, B, Inoculum of 10^6 organisms): 32 µg/mL (≈ 80.7 µM)
- MIC (Escherichia coli; read-out: Minimum Inhibitory Concentration, Escherichia coli strain 6, A, Inoculum of 10^2 organisms): 8 µg/mL (≈ 20.2 µM)
- MIC (Escherichia coli; read-out: Minimum Inhibitory Concentration, Escherichia coli strain 6, B, Inoculum of 10^6 organisms): 16 µg/mL (≈ 40.4 µM)
- MIC (Escherichia coli; read-out: Minimum Inhibitory Concentration, Escherichia coli strain 7, A, Inoculum of 10^2 organisms): 1 µg/mL (≈ 2.52 µM)
- MIC (Escherichia coli; read-out: Minimum Inhibitory Concentration, Escherichia coli strain 7, B, Inoculum of 10^6 organisms): 8 µg/mL (≈ 20.2 µM)
- MIC (Enterobacter cloacae; read-out: Minimum Inhibitory Concentration, Enterobacter cloacae strain 1, A, Inoculum of 10^2 organisms): 8 µg/mL (≈ 20.2 µM)
- MIC (Enterobacter cloacae; read-out: Minimum Inhibitory Concentration, Enterobacter cloacae strain 1, B, Inoculum of 10^6 organisms): > 250 µg/mL
- MIC (Enterobacter cloacae; read-out: Minimum Inhibitory Concentration, Enterobacter cloacae strain 2, A, Inoculum of 10^2 organisms): 16 µg/mL (≈ 40.4 µM)
- MIC (Enterobacter cloacae; read-out: Minimum Inhibitory Concentration, Enterobacter cloacae strain 2, B, Inoculum of 10^6 organisms): > 250 µg/mL
- MIC (Enterobacter cloacae; read-out: Minimum Inhibitory Concentration, Enterobacter cloacae strain 3, A, Inoculum of 10^2 organisms): 16 µg/mL (≈ 40.4 µM)
- MIC (Enterobacter cloacae; read-out: Minimum Inhibitory Concentration, Enterobacter cloacae strain 3, B, Inoculum of 10^6 organisms): 250 µg/mL (≈ 631 µM)
- MIC (Enterobacter cloacae; read-out: Minimum Inhibitory Concentration, Enterobacter cloacae strain 4, A, Inoculum of 10^2 organisms): 32 µg/mL (≈ 80.7 µM)
- MIC (Enterobacter cloacae; read-out: Minimum Inhibitory Concentration, Enterobacter cloacae strain 4, B, Inoculum of 10^6 organisms): > 250 µg/mL
- MIC (Enterobacter cloacae; read-out: Minimum Inhibitory Concentration, Enterobacter cloacae strain 5, A, Inoculum of 10^2 organisms): 16 µg/mL (≈ 40.4 µM)
- MIC (Enterobacter cloacae; read-out: Minimum Inhibitory Concentration, Enterobacter cloacae strain 5, B, Inoculum of 10^6 organisms): 250 µg/mL (≈ 631 µM)
- MIC (Proteus mirabilis; read-out: Minimum Inhibitory Concentration, Proteus mirabilis strain 1, A, Inoculum of 10^2 organisms): 8 µg/mL (≈ 20.2 µM)
- MIC (Proteus mirabilis; read-out: Minimum Inhibitory Concentration, Proteus mirabilis strain 1, B, Inoculum of 10^6 organisms): 16 µg/mL (≈ 40.4 µM)
- MIC (Proteus mirabilis; read-out: Minimum Inhibitory Concentration, Proteus mirabilis strain 2, A, Inoculum of 10^2 organisms): 4 µg/mL (≈ 10.1 µM)
- MIC (Proteus mirabilis; read-out: Minimum Inhibitory Concentration, Proteus mirabilis strain 2, B, Inoculum of 10^6 organisms): 32 µg/mL (≈ 80.7 µM)
- MIC (Proteus mirabilis; read-out: Minimum Inhibitory Concentration, Proteus mirabilis strain 3, A, Inoculum of 10^2 organisms): 16 µg/mL (≈ 40.4 µM)
- MIC (Proteus mirabilis; read-out: Minimum Inhibitory Concentration, Proteus mirabilis strain 3, B, Inoculum of 10^6 organisms): 32 µg/mL (≈ 80.7 µM)
- MIC (Proteus mirabilis; read-out: Minimum Inhibitory Concentration, Proteus mirabilis strain 4, A, Inoculum of 10^2 organisms): 8 µg/mL (≈ 20.2 µM)
- MIC (Proteus mirabilis; read-out: Minimum Inhibitory Concentration, Proteus mirabilis strain 4, B, Inoculum of 10^6 organisms): 32 µg/mL (≈ 80.7 µM)
- MIC (Proteus mirabilis; read-out: Minimum Inhibitory Concentration, Proteus mirabilis strain 5, A, Inoculum of 10^2 organisms): 8 µg/mL (≈ 20.2 µM)
- MIC (Proteus mirabilis; read-out: Minimum Inhibitory Concentration, Proteus mirabilis strain 5, B, Inoculum of 10^6 organisms): 32 µg/mL (≈ 80.7 µM)
- MIC (Proteus vulgaris; read-out: Minimum Inhibitory Concentration, Proteus vulgaris strain 1, A, Inoculum of 10^2 organisms): 1 µg/mL (≈ 2.52 µM)
- MIC (Proteus vulgaris; read-out: Minimum Inhibitory Concentration, Proteus vulgaris strain 1, B, Inoculum of 10^6 organisms): 4 µg/mL (≈ 10.1 µM)
- MIC (Proteus vulgaris; read-out: Minimum Inhibitory Concentration, Proteus vulgaris strain 2, A, Inoculum of 10^2 organisms): 8 µg/mL (≈ 20.2 µM)
- MIC (Proteus vulgaris; read-out: Minimum Inhibitory Concentration, Proteus vulgaris strain 2, B, Inoculum of 10^6 organisms): 125 µg/mL (≈ 315 µM)
- MIC (Proteus vulgaris; read-out: Minimum Inhibitory Concentration, Proteus vulgaris strain 4, A, Inoculum of 10^2 organisms): 16 µg/mL (≈ 40.4 µM)
- MIC (Proteus vulgaris; read-out: Minimum Inhibitory Concentration, Proteus vulgaris strain 4, B, Inoculum of 10^6 organisms): 16 µg/mL (≈ 40.4 µM)
